Assay results published in US10287297B2, “Epoxyazulene derivatives useful for treating cancer and diabetes” (The United States of America, as represented by the …, priority 2015, dated 2019).

Key:
Assay type in all cases: cell-based
[1] = system: NCI-H226; assay: NCI 60 cell assay, NSCLC NCI-H226; conditions: Homo sapiens, 48 h, drug exposure two days, SRB endpoint, read-out: GI-50 value
Experimental: (§1) Samples were tested in the standard National Cancer Institute 60-cell line protocol. First, they were tested against all 60 cell lines in a single final concentration of 10 micromolar. Then, they were separately tested in five 10-fold dilutions. The drug exposure was two days, with an SRB endpoint.

[2] = system: OVCAR-4; assay: NCI 60 cell assay, ovarian OVCAR-4; conditions: Homo sapiens, 48 h; OVCAR-4 (ovarian); drug exposure two days, SRB endpoint; read-out: GI-50 value
Experimental: as §1

[3] = system: IGROV1; assay: NCI 60 cell assay, ovarian IGROV1; conditions: Homo sapiens, IGROV-1, 48 h, drug exposure two days, SRB endpoint, read-out: GI-50 value
Experimental: as §1

[4] = system: SF-295; assay: NCI 60 cell assay, CNS SF-295; conditions: Homo sapiens, 48 h; SF-295 (CNS); drug exposure two days, SRB endpoint; read-out: GI-50 value
Experimental: as §1

[5] = system: MCF7; assay: NCI 60 cell assay, breast MCF7; conditions: Homo sapiens, 48 h, drug exposure two days, SRB endpoint, read-out: GI-50 value
Experimental: as §1

[6] = system: UACC-257; assay: NCI 60 cell assay, melanoma UACC-257; conditions: Homo sapiens, 48 h; UACC-257 (melanoma); drug exposure two days, SRB endpoint; read-out: GI-50 value
Experimental: as §1

[7] = system: COLO 205; assay: NCI 60 cell assay, colon COLO 205; conditions: Homo sapiens, 48 h; COLO 205 (colon); drug exposure two days, SRB endpoint; read-out: GI-50 value
Experimental: as §1

[8] = system: U251; assay: NCI 60 cell assay, CNS U251; conditions: Homo sapiens, U-251, 48 h, drug exposure two days, SRB endpoint, read-out: GI-50 value
Experimental: as §1

[9] = system: SK-MEL-28; assay: NCI 60 cell assay, melanoma SK-MEL-28; conditions: Homo sapiens, 48 h; SK-MEL-28 (melanoma); drug exposure two days, SRB endpoint; read-out: GI-50 value
Experimental: as §1

[10] = system: K-562; assay: NCI 60 cell assay, leukemia K-562; conditions: Homo sapiens, K562, 48 h; K-562 (leukemia); drug exposure two days, SRB endpoint; read-out: GI-50 value
Experimental: as §1

[11] = system: HCC-2998; assay: NCI 60 cell assay, colon HCC-2998; conditions: Homo sapiens, 48 h; HCC-2998 (colon); drug exposure two days, SRB endpoint; read-out: GI-50 value
Experimental: as §1

[12] = system: OVCAR-3; assay: NCI 60 cell assay, ovarian OVCAR-3; conditions: Homo sapiens, 48 h; OVCAR-3 (ovarian); drug exposure two days, SRB endpoint; read-out: GI-50 value
Experimental: as §1

[13] = system: RPMI-8226; assay: NCI 60 cell assay, leukemia RPMI-8226; conditions: Homo sapiens, 48 h; RPMI-8226 (leukemia); drug exposure two days, SRB endpoint; read-out: GI-50 value
Experimental: as §1

[14] = system: HCT-116; assay: NCI 60 cell assay, colon HCT-116; conditions: Homo sapiens, 48 h; HCT-116 (colon); drug exposure two days, SRB endpoint; read-out: GI-50 value
Experimental: as §1

[15] = system: A498; assay: NCI 60 cell assay, renal A498; conditions: Homo sapiens, 48 h, drug exposure two days, SRB endpoint, read-out: GI-50 value
Experimental: as §1

[16] = system: MDA-MB-468; assay: NCI 60 cell assay, breast MDA-MB-468; conditions: Homo sapiens, 48 h; MDA-MB-468 (breast); drug exposure two days, SRB endpoint; read-out: GI-50 value
Experimental: as §1

[17] = system: SK-MEL-5; assay: NCI 60 cell assay, melanoma SK-MEL-5; conditions: Homo sapiens, 48 h; SK-MEL-5 (melanoma); drug exposure two days, SRB endpoint; read-out: GI-50 value
Experimental: as §1

[18] = system: NCI-H322M; assay: NCI 60 cell assay, NSCLC NCI-H322M; conditions: Homo sapiens, 48 h, drug exposure two days, SRB endpoint, read-out: GI-50 value
Experimental: as §1

[19] = system: MDA-MB-435; assay: NCI 60 cell assay, melanoma MDA-MB-435; conditions: Homo sapiens, 48 h; MDA-MB-435 (melanoma); drug exposure two days, SRB endpoint; read-out: GI-50 value
Experimental: as §1

[20] = system: NCI-H460; assay: NCI 60 cell assay, NSCLC NCI-H460; conditions: Homo sapiens, 48 h, drug exposure two days, SRB endpoint, read-out: GI-50 value
Experimental: as §1

[21] = system: ACHN; assay: NCI 60 cell assay, renal ACHN; conditions: Homo sapiens, 48 h, drug exposure two days, SRB endpoint, read-out: GI-50 value
Experimental: as §1

[22] = system: HS 578T; assay: NCI 60 cell assay, breast HS 578T; conditions: Homo sapiens, 48 h; HS 578T (breast); drug exposure two days, SRB endpoint; read-out: GI-50 value
Experimental: as §1

[23] = system: DU-145; assay: NCI 60 cell assay, prostate DU-145; conditions: Homo sapiens, 48 h; DU-145 (prostate); drug exposure two days, SRB endpoint; read-out: GI-50 value
Experimental: as §1

[24] = system: KM12; assay: NCI 60 cell assay, colon KM12; conditions: Homo sapiens, 48 h, drug exposure two days, SRB endpoint, read-out: GI-50 value
Experimental: as §1

[25] = system: HT29; assay: NCI 60 cell assay, colon HT29; conditions: Homo sapiens, HT-29, 48 h, drug exposure two days, SRB endpoint, read-out: GI-50 value
Experimental: as §1

[26] = system: NCI-H23; assay: NCI 60 cell assay, NSCLC NCI-H23; conditions: Homo sapiens, 48 h, drug exposure two days, SRB endpoint, read-out: GI-50 value
Experimental: as §1

[27] = system: OVCAR-5; assay: NCI 60 cell assay, ovarian OVCAR-5; conditions: Homo sapiens, 48 h; OVCAR-5 (ovarian); drug exposure two days, SRB endpoint; read-out: GI-50 value
Experimental: as §1

[28] = system: SW-620; assay: NCI 60 cell assay, colon SW-620; conditions: Homo sapiens, 48 h; SW-620 (colon); drug exposure two days, SRB endpoint; read-out: GI-50 value
Experimental: as §1

[29] = system: PC-3; assay: NCI 60 cell assay, prostate PC-3; conditions: Homo sapiens, 48 h; PC-3 (prostate); drug exposure two days, SRB endpoint; read-out: GI-50 value
Experimental: as §1

[30] = system: UO-31; assay: NCI 60 cell assay, renal UO-31; conditions: Homo sapiens, 48 h; UO-31 (renal); drug exposure two days, SRB endpoint; read-out: GI-50 value
Experimental: as §1

[31] = system: BT-549; assay: NCI 60 cell assay, breast BT-549; conditions: Homo sapiens, 48 h; BT-549 (breast); drug exposure two days, SRB endpoint; read-out: GI-50 value
Experimental: as §1

[32] = system: NCI-H522; assay: NCI 60 cell assay, NSCLC NCI-H522; conditions: Homo sapiens, 48 h, drug exposure two days, SRB endpoint, read-out: GI-50 value
Experimental: as §1

[33] = system: HOP-92; assay: NCI 60 cell assay, NSCLC HOP-92; conditions: Homo sapiens, 48 h; HOP-92 (NSCLC); drug exposure two days, SRB endpoint; read-out: GI-50 value
Experimental: as §1

Row | SMILES | GI50 [1] [µM] | GI50 [2] [µM] | GI50 [3] [µM] | GI50 [4] [µM] | GI50 [5] [µM] | GI50 [6] [µM] | GI50 [7] [µM] | GI50 [8] [µM] | GI50 [9] [µM] | GI50 [10] [µM] | GI50 [11] [µM] | GI50 [12] [µM] | GI50 [13] [µM] | GI50 [14] [µM] | GI50 [15] [µM] | GI50 [16] [µM] | GI50 [17] [µM] | GI50 [18] [µM] | GI50 [19] [µM] | GI50 [20] [µM] | further results
1 | CC1=C2[C@@H](CC1)[C@]1(C)O[C@@](C(C)C)(C[C@H]1OC(=O)CO)[C@H]2OC(=O)C1CC1c1ccccc1 (stereo partly drawn) [Compound (Ij), (3aR,4S,5R,7R,8S)-5-(2-hydroxyacetoxy)-7-isopropyl-1,4-dimethyl-2,3,3a,4,5,6,7,8-octahydro-4,7-epoxyazulen-8-yl-2-phenylcyclopropane-1-carboxylate] | 17 | 14 | 19 | 13 | 8.9 | 16 | 17 | 15 | 17 | 15 | 14 | 14 | 13 | 19 | 0.27 | 13 | 16 | 19 | 15 | 16 | GI50 [21]: 1.4 µM; GI50 [22]: 0.15 µM; GI50 [23]: 16 µM; GI50 [24]: 13 µM; GI50 [25]: 13 µM; GI50 [26]: 15 µM; GI50 [27]: 20 µM; GI50 [28]: 17 µM; GI50 [29]: 9 µM; GI50 [30]: 11 µM; GI50 [31]: 14 µM; GI50 [32]: 13 µM; GI50 [33]: 13 µM
2 | CC1=C2[C@@H](CC1)[C@]1(C)O[C@@](C3CC3)(C[C@H]1OC(=O)CO)[C@H]2OC(=O)C=Cc1ccccc1 [Compound (Is), (3aR,4S,5R,7R,8S)-7-cyclopropyl-5-(2-hydroxyacetoxy)-1,4-dimethyl-2,3,3a,4,5,6,7,8-octahydro-4,7-epoxyazulen-8-yl cinnamate] | 17 | 15 | 19 | 17 | 13 | 16 | 19 | 15 | 18 | 20 | 17 | 16 | 20 | 16 | 0.11 | 15 | 18 | 17 | 17 | 18 | GI50 [21]: 0.028 µM; GI50 [22]: 0.023 µM; GI50 [23]: 18 µM; GI50 [24]: 17 µM; GI50 [25]: 17 µM; GI50 [26]: 17 µM; GI50 [27]: 17 µM; GI50 [28]: 20 µM; GI50 [29]: 15 µM; GI50 [30]: 0.33 µM; GI50 [31]: 0.21 µM; GI50 [32]: 17 µM; GI50 [33]: 17 µM
